Among the data in the OPERA property sets (Mansouri et al. 2018) are logP values, retold here.

By logP is commonly meant a log measure of how a compound divides between an organic and an aqueous phase. Read a low logP as a more hydrophilic compound.

Each structure is given as a SMILES string.

For the molecule `COc1ccc2c(c1)OCC2NC(=O)CN1CCCC1` (centres undefined), the logP stood at 1.92.

For `CCN(CC)CC(=O)NC1COc2ccc(Cl)cc21` (centres undefined), the logP is 2.88.

The molecule `O=C(CN1CCOCC1)NC1COc2ccccc21` (centres undefined) had a logP of 0.81.

For `O=C(CN1CCCC1)NC1COc2ccc(Cl)cc21` (centres undefined), the logP turned out to be 2.47.

The molecule `O=C(CN1CCCCC1)NC1COc2ccccc21` (centres undefined) returned a lipophilicity (logP) of 2.3.

`CCN(CC)CC(=O)NC1COc2ccccc21` (centres undefined) returned a logP of 2.2.

As to `CCCCN(CCCC)CC(=O)NC1COc2ccc(C)cc21` (centres undefined), the log partition coefficient (logP) came to 4.43.

In the case of `COc1ccc2c(c1)OCC2NC(=O)CN1CCOCC1` (centres undefined), the logP stood at 0.92.

On to `COc1ccc2c(c1)OCC2NC(=O)CN1CCCCC1` (centres undefined), for which the logP was 2.41.

Regarding `CCCCN(CCCC)CC(=O)NC1COc2ccc(Cl)cc21` (centres undefined), the logP was found to be 4.44.

In turn, `Cc1ccc2c(c1)C(NC(=O)CN1CCOCC1)CO2` (centres undefined) registered a logP of 1.38.

As to `CCCCN(CCCC)CC(=O)NC1COc2ccccc21` (centres undefined), the logP is 4.15.

As for `Cc1ccc2c(c1)C(NC(=O)CN1CCCCC1)CO2` (centres undefined), the logP turned out to be 2.78.

Take `CCN(CC)CC(=O)NC1COc2ccc(C)cc21` (centres undefined): the logP is 2.69.

For the molecule `Cc1ccc2c(c1)C(NC(=O)CN1CCCC1)CO2` (centres undefined), the logP turned out to be 2.24.

The molecule `O=C(CN1CCOCC1)NC1COc2ccc(Cl)cc21` (centres undefined) displayed a logP of 1.55.

In turn, `O=C(CN1CCCCC1)NC1COc2ccc(Cl)cc21` (centres undefined) showed a lipophilicity (logP) of 3.01.

On to `CCCCN(CCCC)CC(=O)NC1COc2cc(OC)ccc21` (centres undefined), for which the logP was 4.24.

The molecule `O=C(CN1CCCC1)NC1COc2ccccc21` (centres undefined) yielded a logP of 1.76.
